Laboratory results: ChEMBL document CHEMBL2331207, “A novel fluorogenic substrate for dinuclear Zn(II)-containing metallo-β-lactamases” (Bioorg Med Chem Lett, 2013)

Tests used:
[1] = Activity at beta-lactamase type 2 (unknown origin) by fluorescence spectrum analysis
[2] = Activity at metallo-beta-lactamase L1 (unknown origin) by fluorescence spectrum analysis
[3] = Activity at beta-lactamase type 2 (unknown origin) by UV-vis spectrophotometry analysis
[4] = Activity at metallo-beta-lactamase L1 (unknown origin) by UV-vis spectrophotometry analysis

**Q.** What does the source list for `O=C(O)C1=C(CSc2ccc(NC(=O)c3cc4ccccc4oc3=O)cc2)CS[C@@H]2[C@H](NC(=O)c3cc4ccccc4oc3=O)C(=O)N12`?
**A.** Km [1]: 11 µM; kcat [1]: 17 s⁻¹; Km [2]: 18 µM; kcat [2]: 5 s⁻¹; Km [3]: 18 µM; kcat [3]: 12 s⁻¹; Km [4]: 13 µM; kcat [4]: 5 s⁻¹
